Data as given in ChEMBL document CHEMBL1129021, “Synthesis and biological evaluation of the L-enantiomer of 2-deoxy-5-ethyl-4-thiouridine” (Bioorg Med Chem Lett, 1996).

Legend:
Format in all cases: functional, organism-based
[1] = system: Human immunodeficiency virus 1; assay: Compound was evaluated for the antiviral activity against human immunodeficiency virus-1(HIV-1)
Human alphaherpesvirus 2 = assay: Compound was evaluated for the antiviral activity against herpes simplex virus-2(HSV-2)
Human betaherpesvirus 5 = assay: Compound was evaluated for the antiviral activity against human cytomegalo virus(HCMV)
Human alphaherpesvirus 3 = assay: Compound was evaluated for the antiviral activity against varicella zoster virus(VZV)

| IC50 [1] [µM] | IC50 (Human alphaherpesvirus 2) [µM] | IC50 (Human betaherpesvirus 5) [µM] | IC50 (Human alphaherpesvirus 3) [µM] | SMILES |
| --- | --- | --- | --- | --- |
| > 50 | > 50 | > 100 | > 40 | CCc1cn([C@@H]2C[C@@H](O)[C@H](CO)S2)c(=O)[nH]c1=O |
| > 100 | 2.3 | > 100 | 0.76 | CCc1cn([C@H]2C[C@H](O)[C@@H](CO)S2)c(=O)[nH]c1=O |
